According to ChEMBL document CHEMBL1909046, “DrugMatrix in vitro pharmacology data”:

Key:
[1] = DRUGMATRIX: Phorbol Ester radioligand binding (ligand: [3H] PDBu); type: cell membranes, Mus musculus, ICR, Brain, Membrane; settings: Not Active = under 50% inhibition at 10 µM
[2] = DRUGMATRIX: GABAA, Muscimol, Central radioligand binding (ligand: [3H] Muscimol); type: cell membranes, Rattus norvegicus, Wistar, Brain, Membrane; settings: Not Active = under 50% inhibition at 10 µM
[3] = DRUGMATRIX: Calcium Channel Type L, Dihydropyridine radioligand binding (ligand: [3H] Nitrendipine); type: cell membranes, Rattus norvegicus, Wistar, Cerebral cortex, Membrane; settings: Not Active = under 50% inhibition at 10 µM
[4] = DRUGMATRIX: Sigma2 radioligand binding (ligand: [3H] Ifenprodil); type: cell membranes, Rattus norvegicus, Wistar, Brain, Membrane; settings: Not Active = under 50% inhibition at 10 µM
[5] = DRUGMATRIX: beta-Lactamase enzyme inhibition (substrate: Nitrocefin); parameters: species or system Bacillus cereus; settings: Not Active = under 50% inhibition at 10 µM
[6] = DRUGMATRIX: Calcium Channel Type L, Phenylalkylamine radioligand binding (ligand: [3H] (-)-Desmethoxyverapamil (D-888)); type: cell membranes, Rattus norvegicus, Wistar, Brain, Membrane; settings: Not Active = under 50% inhibition at 10 µM
[7] = DRUGMATRIX: Tumor Necrosis Factor (TNF), Non-Selective radioligand binding (ligand: [125I] TNF-alpha); type: cell membranes, Membrane; settings: u-937; Not Active = under 50% inhibition at 10 µM

CN1CCN(CCCN2c3ccccc3Sc3ccc(C(F)(F)F)cc32)CC1 [TRIFLUOPERAZINE]
Not Active: IC50 [1] | Ki [1] | IC50 [2] | Ki [2] | IC50 [3] | Ki [3] | IC50 [4] | Ki [4] | IC50 [5] | Ki [5] | IC50 [6] | Ki [6] | IC50 [7] | Ki [7]

TRANSPLATIN
Not Active: IC50 [1] | Ki [1] | IC50 [2] | Ki [2] | IC50 [3] | Ki [3] | IC50 [4] | Ki [4] | IC50 [5] | Ki [5] | IC50 [6] | Ki [6] | IC50 [7] | Ki [7]

ZIRCONIUM(IV) CHLORIDE
Not Active: IC50 [1] | Ki [1] | IC50 [2] | Ki [2] | IC50 [3] | Ki [3] | IC50 [4] | Ki [4] | IC50 [5] | Ki [5] | IC50 [6] | Ki [6] | IC50 [7] | Ki [7]
